According to a compilation of properties of binary mixtures (doi:10.1039/c5cp02799c):

Test: xn = mol fraction of the nth substance listed
Conditions: 101.3 kPa

CCCCC[P+](CC)(CC)CC.O=S(=O)([N-]S(=O)(=O)C(F)(F)F)C(F)(F)F + O=S(=O)([N-]S(=O)(=O)C(F)(F)F)C(F)(F)F.[Li+]
Conditions | electrical conductivity [S/m] | viscosity [mPa·s]
298.2 K, x2 = 0.25 | 0.062 | –
298.2 K, x2 = 0.39 | 0.016 | 1300
298.3 K, x2 = 0.25 | – | 310
300.2 K, x2 = 0.25 | – | 270
300.2 K, x2 = 0.39 | 0.019 | –
300.3 K, x2 = 0.25 | 0.075 | –
306.2 K, x2 = 0.25 | 0.1 | –
306.2 K, x2 = 0.39 | 0.028 | 670
306.3 K, x2 = 0.25 | – | 180
312.2 K, x2 = 0.39 | 0.041 | –
312.3 K, x2 = 0.25 | 0.14 | 130
312.3 K, x2 = 0.39 | – | 440
318.2 K, x2 = 0.39 | 0.058 | 290
318.3 K, x2 = 0.25 | 0.18 | 95
324.3 K, x2 = 0.25 | 0.23 | 71
330.3 K, x2 = 0.25 | 0.29 | –
330.4 K, x2 = 0.25 | – | 54
336.2 K, x2 = 0.39 | 0.15 | 110
341.2 K, x2 = 0.39 | – | 85
348.2 K, x2 = 0.39 | 0.24 | 63
355.2 K, x2 = 0.39 | – | 47
355.3 K, x2 = 0.25 | – | 21
361.3 K, x2 = 0.25 | 0.73 | –
361.4 K, x2 = 0.25 | – | 18
374.2 K, x2 = 0.25 | – | 12
374.2 K, x2 = 0.39 | – | 24

CC[P+](CC)(CC)CCOC.O=S(=O)([N-]S(=O)(=O)C(F)(F)F)C(F)(F)F + O=S(=O)([N-]S(=O)(=O)C(F)(F)F)C(F)(F)F.[Li+]
Conditions | electrical conductivity [S/m] | viscosity [mPa·s]
298.2 K, x2 = 0.39 | 0.51 | 620
300.1 K, x2 = 0.39 | – | 540
300.2 K, x2 = 0.25 | – | 150
300.2 K, x2 = 0.39 | 0.55 | –
300.3 K, x2 = 0.25 | 1.1 | –
306.1 K, x2 = 0.39 | – | 360
306.2 K, x2 = 0.25 | 1.2 | –
306.2 K, x2 = 0.39 | 0.68 | –
306.3 K, x2 = 0.25 | – | 110
312.2 K, x2 = 0.25 | – | 81
312.3 K, x2 = 0.25 | 1.3 | –
312.3 K, x2 = 0.39 | – | 250
318.1 K, x2 = 0.39 | – | 180
318.2 K, x2 = 0.39 | 0.91 | –
318.3 K, x2 = 0.25 | 1.4 | 61
324.2 K, x2 = 0.25 | – | 47
324.2 K, x2 = 0.39 | 1 | 130
324.3 K, x2 = 0.25 | 1.4 | –
330.2 K, x2 = 0.39 | 1.1 | 95
330.3 K, x2 = 0.25 | 1.5 | 37
336.2 K, x2 = 0.39 | 1.2 | 72
336.3 K, x2 = 0.25 | 1.6 | 30
341.1 K, x2 = 0.39 | – | 58
341.3 K, x2 = 0.25 | – | 25
348.2 K, x2 = 0.25 | 1.7 | 20
348.2 K, x2 = 0.39 | 1.3 | 45
355.2 K, x2 = 0.39 | – | 34
361.2 K, x2 = 0.39 | – | 28
361.3 K, x2 = 0.25 | 1.8 | 14
374.2 K, x2 = 0.39 | – | 19
374.3 K, x2 = 0.25 | – | 10
